{"source": "patent US20100173990A1", "about": "“Transglutaminase Inhibitor Comprising Chlorogenic Acid And A Method For Producing Thereof” (priority 2007, published 2010)", "target": "T1, Transglutaminase 2 (Cavia cutleri, UniProt P08587)", "T1 construct": "purchased Sigma-Aldrich T5398", "T1 sequence (P08587 1-690)": "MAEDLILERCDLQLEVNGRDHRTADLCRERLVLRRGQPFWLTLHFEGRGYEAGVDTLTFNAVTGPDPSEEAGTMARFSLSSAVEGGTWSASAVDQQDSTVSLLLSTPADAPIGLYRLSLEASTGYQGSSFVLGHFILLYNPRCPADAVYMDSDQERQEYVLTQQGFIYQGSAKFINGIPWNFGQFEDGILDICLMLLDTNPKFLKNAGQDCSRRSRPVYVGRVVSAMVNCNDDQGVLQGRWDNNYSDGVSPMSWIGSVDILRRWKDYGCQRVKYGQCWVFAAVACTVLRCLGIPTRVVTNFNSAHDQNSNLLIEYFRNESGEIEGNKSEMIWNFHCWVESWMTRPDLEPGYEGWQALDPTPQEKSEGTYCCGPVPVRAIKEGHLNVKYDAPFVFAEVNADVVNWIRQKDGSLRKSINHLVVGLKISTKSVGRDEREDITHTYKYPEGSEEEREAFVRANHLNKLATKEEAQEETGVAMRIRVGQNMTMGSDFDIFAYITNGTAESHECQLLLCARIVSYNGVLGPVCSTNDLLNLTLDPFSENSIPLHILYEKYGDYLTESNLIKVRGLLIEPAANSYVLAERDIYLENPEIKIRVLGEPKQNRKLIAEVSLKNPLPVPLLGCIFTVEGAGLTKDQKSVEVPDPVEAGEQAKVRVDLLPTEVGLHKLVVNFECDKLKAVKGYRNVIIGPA", "assay": "In vitro assay for inhibition of transglutaminase activity ([1,4-14C] putrescine incorporation into succinylated casein)", "format": "biochemical", "settings": "for activity of transglutaminase relative to DMSO-control, Assay 1 / activity of transglutaminase relative to DMSO-control, Assay 2 / activity of transglutaminase relative to DMSO-control, Assay 3 / activity of transglutaminase relative to DMSO-control, Mean: control = 1.0000; for activity of transglutaminase relative to DMSO-control, Mean: mean of three assays", "method": "To measure the inhibitory activity of chlorogenic acid which competes with putrescine, the transglutaminase-catalyzed reaction between [1,4,-^14C] putrescine and succinylated casein were observed.\nSuccinylated casein was purchased from Calbiochem (Cat. No. 573464), and 1 g of the powder was dissolved in 50 ml of a reaction buffer solution containing 5 mM DTT (0.1 M Tris-acetate (pH 8.0), 10 mM CaCl, 0.15 M NaCl, 1.0 mM EDTA). This solution was stored in a deep freezer for further use. [1,4-^14C] Putrescine dihydrochloride was purchased from GE Healthcare (Cat. No. CFA301), and the stock solution was diluted with distilled water to yield a radiological dose of 5 μCi/ml. Transglutaminase 2 was purchased from Sigma-Aldrich (Cat. No. T5398), and diluted with distilled water to yield a final concentration of 1 unit/ml. Chlorogenic acid (Sigma-Aldrich, Cat No. C3878) was dissolved in DMSO at a concentration of 10 mM to prepare its stock solution, and the stock solution was diluted with DMSO to prepare solutions having various concentrations.\n450 μl of succinylated casein solution and 50 μl of [1,4-^14C] putrescine dihydrochloride solution were mixed together to prepare a substrate solution. 96 μl of the reaction buffer, 3 μl of the stock solution of chlorogenic acid, and 1 μl of the stock solution of transglutaminase were mixed together to prepare each sample, followed by incubation at 37° C. for 10 min. 500 μl of the substrate solution and 100 μl of sample solution were mixed well, and the mixture was incubated at 37° C. for 2 hrs, before termination with 4.5 ml of cold (4° C.) 7.5% TCA. The final solution was stored at 4° C. for 1 hr. The TCA-precipitates were filtered through a GF/glass fiber filter, washed with 25 ml of cold 5% TCA, and dried. Radioactivity of crosslinked protein was measured using a β-counter (Beckman Coulter), and compensated by the activity of DMSO-control group as a standard. The activity of transglutaminase was represented by the measured values."}
{"smiles": "O=C(/C=C/c1ccc(O)c(O)c1)O[C@@H]1C[C@](O)(C(=O)O)C[C@@H](O)[C@H]1O", "note": "[chlorogenic acid, 3-[[3-(3,4-dihydroxyphenyl)-1-oxo-2-propenyl]oxy]-1,4,5-trihydroxycyclohexanecarboxylic acid]", "values": [{"measurement": "activity of transglutaminase relative to DMSO-control, Assay 1", "setting": "0.5 μM chlorogenic acid", "result": 0.9450}, {"measurement": "activity of transglutaminase relative to DMSO-control, Assay 2", "setting": "0.5 μM chlorogenic acid", "result": 0.8658}, {"measurement": "activity of transglutaminase relative to DMSO-control, Assay 3", "setting": "0.5 μM chlorogenic acid", "result": 0.9028}, {"measurement": "activity of transglutaminase relative to DMSO-control, Mean", "setting": "0.5 μM chlorogenic acid", "result": 0.9045}, {"measurement": "activity of transglutaminase relative to DMSO-control, Assay 1", "setting": "1.0 μM chlorogenic acid", "result": 0.8294}, {"measurement": "activity of transglutaminase relative to DMSO-control, Assay 2", "setting": "1.0 μM chlorogenic acid", "result": 0.7454}, {"measurement": "activity of transglutaminase relative to DMSO-control, Assay 3", "setting": "1.0 μM chlorogenic acid", "result": 0.5411}, {"measurement": "activity of transglutaminase relative to DMSO-control, Mean", "setting": "1.0 μM chlorogenic acid", "result": 0.7053}, {"measurement": "activity of transglutaminase relative to DMSO-control, Assay 1", "setting": "2.0 μM chlorogenic acid", "result": 0.4526}, {"measurement": "activity of transglutaminase relative to DMSO-control, Assay 2", "setting": "2.0 μM chlorogenic acid", "result": 0.5111}, {"measurement": "activity of transglutaminase relative to DMSO-control, Assay 3", "setting": "2.0 μM chlorogenic acid", "result": 0.3081}, {"measurement": "activity of transglutaminase relative to DMSO-control, Mean", "setting": "2.0 μM chlorogenic acid", "result": 0.4240}, {"measurement": "activity of transglutaminase relative to DMSO-control, Assay 1", "setting": "3.0 μM chlorogenic acid", "result": 0.2041}, {"measurement": "activity of transglutaminase relative to DMSO-control, Assay 2", "setting": "3.0 μM chlorogenic acid", "result": 0.1523}, {"measurement": "activity of transglutaminase relative to DMSO-control, Assay 3", "setting": "3.0 μM chlorogenic acid", "result": 0.1209}, {"measurement": "activity of transglutaminase relative to DMSO-control, Mean", "setting": "3.0 μM chlorogenic acid", "result": 0.1591}, {"measurement": "activity of transglutaminase relative to DMSO-control, Assay 1", "setting": "5.0 μM chlorogenic acid", "result": 0.1094}, {"measurement": "activity of transglutaminase relative to DMSO-control, Assay 2", "setting": "5.0 μM chlorogenic acid", "result": 0.1009}, {"measurement": "activity of transglutaminase relative to DMSO-control, Assay 3", "setting": "5.0 μM chlorogenic acid", "result": 0.0797}, {"measurement": "activity of transglutaminase relative to DMSO-control, Mean", "setting": "5.0 μM chlorogenic acid", "result": 0.0966}, {"measurement": "activity of transglutaminase relative to DMSO-control, Assay 1", "setting": "10.0 μM chlorogenic acid", "result": 0.0713}, {"measurement": "activity of transglutaminase relative to DMSO-control, Assay 2", "setting": "10.0 μM chlorogenic acid", "result": 0.0876}, {"measurement": "activity of transglutaminase relative to DMSO-control, Assay 3", "setting": "10.0 μM chlorogenic acid", "result": 0.0754}, {"measurement": "activity of transglutaminase relative to DMSO-control, Mean", "setting": "10.0 μM chlorogenic acid", "result": 0.0781}, {"measurement": "activity of transglutaminase relative to DMSO-control, Assay 1", "setting": "50.0 μM chlorogenic acid", "result": 0.0711}, {"measurement": "activity of transglutaminase relative to DMSO-control, Assay 2", "setting": "50.0 μM chlorogenic acid", "result": 0.0808}, {"measurement": "activity of transglutaminase relative to DMSO-control, Assay 3", "setting": "50.0 μM chlorogenic acid", "result": 0.0703}, {"measurement": "activity of transglutaminase relative to DMSO-control, Mean", "setting": "50.0 μM chlorogenic acid", "result": 0.0741}, {"measurement": "IC50", "setting": "calculated by nonlinear regression from mean values", "result": 1.49, "unit": "µM"}, {"measurement": "inhibition of the activity of transglutaminase (FIG. 1)", "setting": "relative inhibition activities versus concentration", "result": "inhibited in a chlorogenic acid concentration-dependent manner"}]}
